From PubChem BioAssay AID2060485 (Molecular Pharmacology Branch, DTP, NCI, 2025)

System: A375 multi-cell spheroids with HUVEC/MSC, viability
Experiment: Anticancer human tumor A375 cell line growth inhibition [GQUAD];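 note: spheroids exposed to compounds for seven days before readout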
Details: for IC50: curve of first compound; for viability, T/C: stronger effect = lower value; active = viability on the fitted dose curve at most 10% of control; inactive = the rest
Procedure, shortened: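 Viability of tumor cells grown as complex spheroids with endothelial and stromal cells, exposed to drug combinations. Top concentration at or near clinical Cmax (else 10 microM), diluted in half-log increments.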

[1] = second compound 0.0316 µM, first compound 0.0316 µM
[2] = second compound 0.0316 µM, first compound 0.1 µM
[3] = second compound 0.0316 µM, first compound 0.316 µM
[4] = second compound 0.0316 µM, first compound 1 µM
[5] = second compound 0.0316 µM, first compound 3.16 µM
[6] = second compound 0.0316 µM, first compound 10 µM
[7] = second compound 0.1 µM, first compound 0.0316 µM
[8] = second compound 0.1 µM, first compound 0.1 µM
[9] = second compound 0.1 µM, first compound 0.316 µM
[10] = second compound 0.1 µM, first compound 1 µM
[11] = second compound 0.1 µM, first compound 3.16 µM
[12] = second compound 0.1 µM, first compound 10 µM
[13] = second compound 0.316 µM, first compound 0.0316 µM
[14] = second compound 0.316 µM, first compound 0.1 µM
[15] = second compound 0.316 µM, first compound 0.316 µM
[16] = second compound 0.316 µM, first compound 1 µM
[17] = second compound 0.316 µM, first compound 3.16 µM
[18] = second compound 0.316 µM, first compound 10 µM
[19] = second compound 1 µM, first compound 0.0316 µM
[20] = second compound 1 µM, first compound 0.1 µM
[21] = second compound 1 µM, first compound 0.316 µM
[22] = second compound 1 µM, first compound 1 µM
[23] = second compound 1 µM, first compound 3.16 µM
[24] = second compound 1 µM, first compound 10 µM
[25] = second compound 3.16 µM, first compound 0.0316 µM
[26] = second compound 3.16 µM, first compound 0.1 µM
[27] = second compound 3.16 µM, first compound 0.316 µM
[28] = second compound 3.16 µM, first compound 1 µM
[29] = second compound 3.16 µM, first compound 3.16 µM
[30] = second compound 3.16 µM, first compound 10 µM
[31] = second compound 10 µM, first compound 0.0316 µM
[32] = second compound 10 µM, first compound 0.1 µM
[33] = second compound 10 µM, first compound 0.316 µM
[34] = second compound 10 µM, first compound 1 µM
[35] = second compound 10 µM, first compound 3.16 µM
[36] = second compound 10 µM, first compound 10 µM

COc1cccc2c1C(=O)c1c(O)c3c(c(O)c1C2=O)CC(O)(C(=O)CO)CC3OC1CC(N)C(O)C(C)O1 (stereo not drawn) + Cc1[nH]c2ccc(F)cc2c1-c1nc2c3cccnc3c3ncccc3c2[nH]1
inactive: viability, T/C [1] 101% | viability, T/C [2] 90.8% | viability, T/C [3] 38.9% | viability, T/C [4] 20.5% | viability, T/C [7] 103% | viability, T/C [8] 74.5% | viability, T/C [9] 35.2% | viability, T/C [10] 19.8% | viability, T/C [13] 110% | viability, T/C [14] 89.2% | viability, T/C [15] 41.3% | viability, T/C [16] 22.7% | viability, T/C [19] 99.3% | viability, T/C [20] 82.8% | viability, T/C [21] 38.7% | viability, T/C [22] 18.7% | viability, T/C [25] 68.2% | viability, T/C [26] 60.1% | viability, T/C [27] 49.4% | viability, T/C [28] 21.3% | viability, T/C [31] 71.9% | viability, T/C [32] 72% | viability, T/C [33] 48.9% | viability, T/C [34] 20.9%
288 nM: IC50 (second compound 3.16 µM)
active: viability, T/C [5] 2.15% | viability, T/C [6] 0.1% | viability, T/C [11] 2.23% | viability, T/C [12] 0.08% | viability, T/C [17] 3.01% | viability, T/C [18] 0.09% | viability, T/C [23] 3.16% | viability, T/C [24] 0.1% | viability, T/C [29] 0.45% | viability, T/C [30] 0.13% | viability, T/C [35] 1.35% | viability, T/C [36] 0.22%
326 nM: IC50 (second compound 10 µM)
286 nM: IC50 (second compound 0.316 µM)
216 nM: IC50 (second compound 0.1 µM)
271 nM: IC50 (second compound 0.0316 µM)
251 nM: IC50 (second compound 1 µM)

Cc1cccc(N(C)C(=O)C2C(O)CCN2c2nc(C)cc(C(F)(F)F)c2C#N)c1 (stereo not drawn) + Cc1[nH]c2ccc(F)cc2c1-c1nc2c3cccnc3c3ncccc3c2[nH]1
inactive: viability, T/C [1] 102% | viability, T/C [2] 102% | viability, T/C [3] 94.8% | viability, T/C [4] 98.6% | viability, T/C [5] 95.5% | viability, T/C [6] 95.2% | viability, T/C [7] 106% | viability, T/C [8] 94.5% | viability, T/C [9] 105% | viability, T/C [10] 108% | viability, T/C [11] 104% | viability, T/C [12] 103% | viability, T/C [13] 98.1% | viability, T/C [14] 100% | viability, T/C [15] 93.5% | viability, T/C [16] 111% | viability, T/C [17] 111% | viability, T/C [18] 107% | viability, T/C [19] 95.7% | viability, T/C [20] 101% | viability, T/C [21] 106% | viability, T/C [22] 109% | viability, T/C [23] 103% | viability, T/C [24] 105% | viability, T/C [25] 80% | viability, T/C [26] 90.2% | viability, T/C [27] 94.7% | viability, T/C [28] 84.2% | viability, T/C [29] 89.5% | viability, T/C [30] 79.4% | viability, T/C [31] 106% | viability, T/C [32] 100% | viability, T/C [33] 112% | viability, T/C [34] 106% | viability, T/C [35] 97.6% | viability, T/C [36] 91.7%
> 10000 nM: IC50 (second compound 0.0316 µM) | IC50 (second compound 0.1 µM) | IC50 (second compound 0.316 µM) | IC50 (second compound 1 µM) | IC50 (second compound 3.16 µM) | IC50 (second compound 10 µM)

Cn1ncnc1[C@H]1c2n[nH]c(=O)c3cc(F)cc(c23)N[C@@H]1c1ccc(F)cc1 + Cc1[nH]c2ccc(F)cc2c1-c1nc2c3cccnc3c3ncccc3c2[nH]1
inactive: viability, T/C (second compound 0.0316 µM, first compound 0.000999 µM) 106% | viability, T/C (second compound 0.0316 µM, first compound 0.00316 µM) 98.1% | viability, T/C (second compound 0.0316 µM, first compound 0.00999 µM) 108% | viability, T/C [1] 106% | viability, T/C (second compound 0.0316 µM, first compound 0.0999 µM) 104% | viability, T/C [3] 97.4% | viability, T/C (second compound 0.1 µM, first compound 0.000999 µM) 96.3% | viability, T/C (second compound 0.1 µM, first compound 0.00316 µM) 97.5% | viability, T/C (second compound 0.1 µM, first compound 0.00999 µM) 102% | viability, T/C [7] 103% | viability, T/C (second compound 0.1 µM, first compound 0.0999 µM) 125% | viability, T/C [9] 114% | viability, T/C (second compound 0.316 µM, first compound 0.000999 µM) 108% | viability, T/C (second compound 0.316 µM, first compound 0.00316 µM) 105% | viability, T/C (second compound 0.316 µM, first compound 0.00999 µM) 106% | viability, T/C [13] 112% | viability, T/C (second compound 0.316 µM, first compound 0.0999 µM) 131% | viability, T/C [15] 121% | viability, T/C (second compound 1 µM, first compound 0.000999 µM) 100% | viability, T/C (second compound 1 µM, first compound 0.00316 µM) 98% | viability, T/C (second compound 1 µM, first compound 0.00999 µM) 115% | viability, T/C [19] 137% | viability, T/C (second compound 1 µM, first compound 0.0999 µM) 138% | viability, T/C [21] 116% | viability, T/C (second compound 3.16 µM, first compound 0.000999 µM) 83.7% | viability, T/C (second compound 3.16 µM, first compound 0.00316 µM) 93.6% | viability, T/C (second compound 3.16 µM, first compound 0.00999 µM) 92.3% | viability, T/C [25] 78.3% | viability, T/C (second compound 3.16 µM, first compound 0.0999 µM) 80.7% | viability, T/C [27] 72% | viability, T/C (second compound 10 µM, first compound 0.000999 µM) 106% | viability, T/C (second compound 10 µM, first compound 0.00316 µM) 95.7% | viability, T/C (second compound 10 µM, first compound 0.00999 µM) 112% | viability, T/C [31] 101% | viability, T/C (second compound 10 µM, first compound 0.0999 µM) 96.8% | viability, T/C [33] 90.9%
> 316 nM: IC50 (second compound 0.0316 µM) | IC50 (second compound 0.1 µM) | IC50 (second compound 0.316 µM) | IC50 (second compound 1 µM) | IC50 (second compound 3.16 µM) | IC50 (second compound 10 µM)

Nc1ccn(C2OC(CO)C(O)C2(F)F)c(=O)n1 (stereo not drawn) + Cc1[nH]c2ccc(F)cc2c1-c1nc2c3cccnc3c3ncccc3c2[nH]1
active: viability, T/C [3] 10.3% | viability, T/C [4] 8.14% | viability, T/C [5] 10.7% | viability, T/C [6] 10.2%
inactive: viability, T/C [1] 20.4% | viability, T/C [2] 11% | viability, T/C [7] 22.9% | viability, T/C [8] 9.94% | viability, T/C [9] 12% | viability, T/C [10] 9.5% | viability, T/C [11] 12.2% | viability, T/C [12] 8.91% | viability, T/C [13] 21.1% | viability, T/C [14] 12.7% | viability, T/C [15] 11.2% | viability, T/C [16] 10.8% | viability, T/C [17] 10.8% | viability, T/C [18] 11.3% | viability, T/C [19] 22.9% | viability, T/C [20] 12.7% | viability, T/C [21] 14.8% | viability, T/C [22] 13.6% | viability, T/C [23] 12.8% | viability, T/C [24] 11.8% | viability, T/C [25] 15.4% | viability, T/C [26] 13.1% | viability, T/C [27] 13% | viability, T/C [28] 13.9% | viability, T/C [29] 19% | viability, T/C [30] 13.9% | viability, T/C [31] 16.1% | viability, T/C [32] 10.7% | viability, T/C [33] 10.9% | viability, T/C [34] 10.3% | viability, T/C [35] 13.2% | viability, T/C [36] 12%
< 31.6 nM: IC50 (second compound 0.0316 µM) | IC50 (second compound 0.1 µM) | IC50 (second compound 0.316 µM) | IC50 (second compound 1 µM) | IC50 (second compound 3.16 µM) | IC50 (second compound 10 µM)
